Laboratory results published in patent publication US10952433B2, “Solutions for enhancing the effectiveness of insecticides and fungicides on living plants and related methods” (priority 2015, dated 2021).
Like-named read-outs stand apart in the source and are kept apart here.

Experiments:
Gypsy Moth Catepillar = experiment: Gypsy moth caterpillar damage to white oak seedlings after hand spray (Table 5); type: in vivo, gypsy moth (on white oak seedlings)
Method: The particular solutions tested were applied to a stem of the white oak seedling using a low volume hand spray and spraying 20 milliliters per seedling. A total of 20 seedlings were tested. […] At permethrin concentration of 50 ppm, the damage after one month was 30% and with 100 ppm used alone, the damage was 0. When buffered amine oxide system No. 3 was employed in concentrations of 400:1 with 10 ppm of the insecticide, the gypsy moth caterpillar damage was 10% and when a concentration of 200:1 was employed with 10 ppm insecticide, the damage was 0.

[1] = test system: lepidopteran larvae: cabbage loopers (Trichoplusia ni) and beet armyworms (Spodoptera exigua); type: in vivo; settings: plants
Procedure, shortened: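 Romaine lettuce plants 2-3 inches tall were sprayed with 10 mL of insecticide (ppm) with buffer, amine oxide or buffered amine oxide at 200:1, then infested with 15 T. ni and 15 S. exigua larvae (5th-6th instar) per container. Leaf surface damage scored visually in 5% increments after 24 h.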

[2] = test system: lepidopteran larvae: cabbage loopers (Trichoplusia ni) and beet armyworms (Spodoptera exigua); type: in vivo; settings: leaf discs
Procedure, shortened: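 Romaine lettuce leaf discs (⅝ inch) dipped about one second in treatment solution and infested with four cabbage loopers and four beet armyworms (3rd-4th instar) per container. Held dark at 15 °C, 80% RH; percent disc-area damage scored visually in 5% increments at 24, 48 and 72 h.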

[3] = insecticide + CO3 buffer 200:1, no amine oxide, PPM: Chlorantranilopril 60, Acephate 70, Methoxyfenozide 100, Spinosad 30, Permethrin 10, Indoxacarb 50
[4] = insecticide + PO4 buffer 200:1, no amine oxide, PPM: Chlorantranilopril 60, Acephate 70, Methoxyfenozide 100, Spinosad 30, Permethrin 10, Indoxacarb 50
[5] = insecticide + amine oxide 12, no buffer, 200:1, PPM: Chlorantranilopril 60, Acephate 70, Methoxyfenozide 100, Spinosad 30, Permethrin 10, Indoxacarb 50
[6] = insecticide + amine oxide 1218, no buffer, 200:1, PPM: Chlorantranilopril 60, Acephate 70, Methoxyfenozide 100, Spinosad 30, Permethrin 10, Indoxacarb 50
[7] = insecticide + buffered amine oxide system CO3, 12, 200:1, PPM: Chlorantranilopril 60, Acephate 70, Methoxyfenozide 100, Spinosad 30, Permethrin 10, Indoxacarb 50
[8] = insecticide + buffered amine oxide system CO3, 1218, 200:1, PPM: Chlorantranilopril 60, Acephate 70, Methoxyfenozide 100, Spinosad 30, Permethrin 10, Indoxacarb 50
[9] = insecticide + buffered amine oxide system PO4, 12, 200:1, PPM: Chlorantranilopril 60, Acephate 70, Methoxyfenozide 100, Spinosad 30, Permethrin 10, Indoxacarb 50
[10] = insecticide + buffered amine oxide system PO4, 1218, 200:1, PPM: Chlorantranilopril 60, Acephate 70, Methoxyfenozide 100, Spinosad 30, Permethrin 10, Indoxacarb 50
[11] = insecticide alone, highest, PPM: Chlorantranilopril 120, Acephate 140, Methoxyfenozide 200, Spinosad 60, Permethrin 20, Indoxacarb 100
[12] = insecticide alone, increased, PPM: Chlorantranilopril 90, Acephate 105, Methoxyfenozide 150, Spinosad 45, Permethrin 15, Indoxacarb 75
[13] = insecticide alone, PPM: Chlorantranilopril 60, Acephate 70, Methoxyfenozide 100, Spinosad 30, Permethrin 10, Indoxacarb 50

CC1(C)C(C=C(Cl)Cl)C1C(=O)OCc1cccc(Oc2ccccc2)c1 (stereo not drawn) [Permethrin]
Percent Gypsy Moth Catepillar Damage to White Oak 1 Month After Application (Gypsy Moth Catepillar; Permethrin 10 PPM + buffered amine oxide system 3, amine oxide 12, 200:1): 0%
Percent Gypsy Moth Catepillar Damage to White Oak 1 Month After Application (Gypsy Moth Catepillar; Permethrin 10 PPM + buffered amine oxide system 3, amine oxide 12, 400:1): 10%
Percent Gypsy Moth Catepillar Damage to White Oak 1 Month After Application (Gypsy Moth Catepillar; Permethrin 10 PPM + buffered amine oxide system 4, amine oxide 12, 200:1): 0%
Percent Gypsy Moth Catepillar Damage to White Oak 1 Month After Application (Gypsy Moth Catepillar; Permethrin 10 PPM + buffered amine oxide system 4, amine oxide 12, 400:1): 10%
Percent Gypsy Moth Catepillar Damage to White Oak 1 Month After Application (Gypsy Moth Catepillar; Permethrin 10 PPM alone): 80%
Percent Gypsy Moth Catepillar Damage to White Oak 1 Month After Application (Gypsy Moth Catepillar; Permethrin 50 PPM alone): 30%
Percent Gypsy Moth Catepillar Damage to White Oak 1 Month After Application (Gypsy Moth Catepillar; Permethrin 100 PPM alone): 0%
Percent Lepidopteran Damage to Romaine Lettuce 24 hr [1, 3]: 80.5%
Percent Lepidopteran Damage to Romaine Lettuce 24 hr [1, 4]: 83.0%
Percent Lepidopteran Damage to Romaine Lettuce 24 hr [1, 5]: 77.5%
Percent Lepidopteran Damage to Romaine Lettuce 24 hr [1, 6]: 72.0%
Percent Lepidopteran Damage to Romaine Lettuce 24 hr [1, 7]: 22.5%
Percent Lepidopteran Damage to Romaine Lettuce 24 hr [1, 8]: 28.0%
Percent Lepidopteran Damage to Romaine Lettuce 24 hr [1, 9]: 24.0%
Percent Lepidopteran Damage to Romaine Lettuce 24 hr [1, 10]: 21.0%
Percent Lepidopteran Damage to Romaine Lettuce 24 hr [1, 11]: 90.0%
Percent Lepidopteran Damage to Romaine Lettuce 24 hr [1, 12]: 78.0%
Percent Lepidopteran Damage to Romaine Lettuce 24 hr [1, 13]: 77.0%
Percent Lepidopteran Damage to Romaine Lettuce 24 hr [2, 3]: 53.5%
Percent Lepidopteran Damage to Romaine Lettuce 24 hr [2, 4]: 28.5%
Percent Lepidopteran Damage to Romaine Lettuce 24 hr [2, 5]: 17.0%
Percent Lepidopteran Damage to Romaine Lettuce 24 hr [2, 6]: 24.0%
Percent Lepidopteran Damage to Romaine Lettuce 24 hr [2, 7]: 23.5%
Percent Lepidopteran Damage to Romaine Lettuce 24 hr [2, 8]: 2.0%
Percent Lepidopteran Damage to Romaine Lettuce 24 hr [2, 9]: 3.0%
Percent Lepidopteran Damage to Romaine Lettuce 24 hr [2, 10]: 1.5%
Percent Lepidopteran Damage to Romaine Lettuce 24 hr [2, 11]: 1.5%
Percent Lepidopteran Damage to Romaine Lettuce 24 hr [2, 12]: 0.0%
Percent Lepidopteran Damage to Romaine Lettuce 24 hr [2, 13]: 85.5%
Percent Lepidopteran Damage to Romaine Lettuce 48 hr [2, 3]: 97.5%
Percent Lepidopteran Damage to Romaine Lettuce 48 hr [2, 4]: 79.0%
Percent Lepidopteran Damage to Romaine Lettuce 48 hr [2, 5]: 60.0%
Percent Lepidopteran Damage to Romaine Lettuce 48 hr [2, 6]: 95.0%
Percent Lepidopteran Damage to Romaine Lettuce 48 hr [2, 7]: 67.0%
Percent Lepidopteran Damage to Romaine Lettuce 48 hr [2, 8]: 4.5%
Percent Lepidopteran Damage to Romaine Lettuce 48 hr [2, 9]: 10.5%
Percent Lepidopteran Damage to Romaine Lettuce 48 hr [2, 10]: 3.0%
Percent Lepidopteran Damage to Romaine Lettuce 48 hr [2, 11]: 4.0%
Percent Lepidopteran Damage to Romaine Lettuce 48 hr [2, 12]: 0.5%
Percent Lepidopteran Damage to Romaine Lettuce 48 hr [2, 13]: 100.0%
Percent Lepidopteran Damage to Romaine Lettuce 72 hr [2, 3]: 100.0%
Percent Lepidopteran Damage to Romaine Lettuce 72 hr [2, 4]: 100.0%
Percent Lepidopteran Damage to Romaine Lettuce 72 hr [2, 5]: 89.0%
Percent Lepidopteran Damage to Romaine Lettuce 72 hr [2, 6]: 100.0%
Percent Lepidopteran Damage to Romaine Lettuce 72 hr [2, 7]: 91.0%
Percent Lepidopteran Damage to Romaine Lettuce 72 hr [2, 8]: 5.0%
Percent Lepidopteran Damage to Romaine Lettuce 72 hr [2, 9]: 21.0%
Percent Lepidopteran Damage to Romaine Lettuce 72 hr [2, 10]: 3.0%
Percent Lepidopteran Damage to Romaine Lettuce 72 hr [2, 11]: 4.5%
Percent Lepidopteran Damage to Romaine Lettuce 72 hr [2, 12]: 0.5%
Percent Lepidopteran Damage to Romaine Lettuce 72 hr [2, 13]: 100.0%
